pIC50: −log10 of the molar value. Where two headings read alike, the source gives them in different places.
Columns and labels:
[1] = test system: P. falciparum stage V female gametocytes; test: P. falciparum female gametocyte activation assay (Pf FGAA), 24 h or 48 h preincubation, Pfs25 expression readout; assay type: cell-based, Plasmodium falciparum NF54; conditions: mean, read-out: Gametocytes mean Pf FGAA IC50
Method in brief: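 Female activation, triggered by xanthurenic acid and cooling, was scored by imaging Cy3-labelled anti-Pfs25 female gametes after 24 h at 26 °C. Beforehand, purified NF54 stage V gametocytes had been incubated with compound for either 24 h or 48 h (37 °C, 3% O2). Values are pIC50 from full-curve regression.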

[2] = test system: P. falciparum asexual blood stages; conditions: read-out: Pf Asexual blood stages XC50, cited from earlier work
HepG2 cells = test: HepG2 cytotoxicity assay; assay type: cell-based
Method in brief: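 Luminescent read-out (CellTiter-Glo) taken 10 min after reagent addition at RT; plates and reagent pre-equilibrated 30 min at RT.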

[3] = test system: P. falciparum stages IV–V gametocytes; test: Gametocytocidal ATP-depletion assay (gametocyte ATP bioluminescence); assay type: cell-based, Plasmodium falciparum
Method in brief: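 Read-out is luciferase luminescence of parasite ATP (BacTiter-Glo), standing in for viability. Double-purified mature stage IV–V gametocytes, 12,500 per well, were exposed 48 h at 37 °C in low-O2 gas; screening concentration 2 μM.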

[4] = P. falciparum female gametocytes
[5] = TCAMS asexual blood stage data, ref 1 (Gamo, F. J. et al., Nature 465, 305-310, 2010)
[6] = TCAMS data, ref 1 (Gamo et al., 2010)
[7] = P. falciparum female gametocyte activation assay

SMILES	pIC50 [1, 4]	pIC50 [2, 5]	HepG2 cells mean TOX50 (HepG2 cells; HepG2 cells; mean)	Gametocytes mean ATP inhibition at 2µM [3]	pIC50 [1]	pIC50 [2, 6]	HepG2 cells mean TOX50 (HepG2 cells; mean)	Gametocytes mean ATP inhibition at 2µM (%) [3]	pIC50 [1, 7]	HepG2 cells mean TOX50 (HepG2 cells; mean; HepG2 cells)
CCOc1ccc2nc3cc(NC(=O)c4ccco4)ccc3c(N)c2c1 [TCMDC-125004]	5.34	6.10	25.15 µM	91.77%						
COc1c(OC)c(OC)c2ccccc2c1CNCCCCCCNCc1c(OC)c(OC)c(OC)c2ccccc12.Cl [TCMDC-137827]					5.78	6.12	2.95 µM	-6.56%		
CS(=O)(=O)O.FC(F)(F)COc1ccc(CCNCCCCNCCc2ccc(OCC(F)(F)F)c3ccccc23)c2ccccc12 [TCMDC-137282]					6.70	6.19	1.66 µM	91.27%		
NCc1ccc(CNCc2cccc(-c3ccc(-c4nc5cc(C(F)(F)F)ccc5[nH]4)cc3)c2)cc1.O=C(O)C(F)(F)F [TCMDC-132811]	6.08	6.59	14.65 µM	-6.09%						
CN1CCc2cc(NS(=O)(=O)c3ccc(-c4ccc(Cl)cc4)cc3)c(OCCCN3CCCCC3)cc2CC1.Cl [TCMDC-141754]		6.02		6.66%					6.01	2.23 µM
Clc1ccc(/N=C(/NCCCCCCCN/C(=N\c2ccc(Cl)cc2)Nc2ccc(Cl)cc2)Nc2ccc(Cl)cc2)cc1 [TCMDC-137529]					6.24	6.49	2.00 µM	15.83%		
CC(Cc1ccc(NS(=O)(=O)c2ccc(CC(C)NCCc3cccc(Cl)c3)cc2)cc1)NCCc1cccc(Cl)c1 (stereo not drawn) [TCMDC-139797]					5.74	6.11	4.37 µM	-2.49%		
COc1cc2ccccc2c(OC)c1CCNCCCCNCCc1c(OC)cc2ccccc2c1OC.CS(=O)(=O)O [TCMDC-137842]					5.91	6.05	4.17 µM	60.27%		
CCc1c(CCNCCCCCCNCCc2ccc([N+](=O)[O-])cc2)ccc(OC)c1OC.Cl [TCMDC-132066]	5.84	6.14	4.57 µM	24.70%						
Cl.N[C@@H](CCNC1CCN(c2cccc(C(F)(F)F)c2)CC1)Cc1ccc(F)c(F)c1 [TCMDC-132301]	6.36	5.89	3.76 µM	70.53%						
O=C(O)C(F)(F)F.O=S(=O)(NCCN1CCCC1)c1ccc(-c2cccc(CNC3Cc4ccccc4C3)c2)cc1 [TCMDC-132215]	5.60	6.21	6.03 µM	9.62%						
CN(CCc1ccccc1)c1ncc(-c2cccc(CNCCC3CCCN3C)c2)cn1 (stereo not drawn) [TCMDC-133143]	5.87	6.06	2.88 µM	11.85%						
c1cc(C2=N[C@H]3CCCC[C@@H]3N2)ccc1OCCCOc1ccc(C2=N[C@@H]3CCCC[C@H]3N2)cc1 [TCMDC-137803]					4.94	6.14	38.02 µM	57.55%		
C#CCCOc1ccc2ccccc2c1CNCCCCCCNCc1c(OCCC#C)ccc2ccccc12 [TCMDC-137832]					6.04	6.09	4.79 µM	12.79%		
FC(F)(F)c1ccc2[nH]c(-c3ccc(-c4cccc(CN5CCC(CCN6CCCCC6)CC5)c4)cc3)nc2c1.O=C(O)C(F)(F)F [TCMDC-133941]	5.90	6.82	4.45 µM	-7.71%						
Fc1ccc(NC(S)=NN=Cc2ccccn2)cc1 [TCMDC-125521]	7.57	6.11	>100 µM	85.73%						
COc1cc2c(cc1CCNCCCCNCCc1cc3c(cc1OC)CCCC3)CCCC2.CS(=O)(=O)O [TCMDC-137319]					6.05	6.00	1.86 µM	88.42%		
CCc1c(CCNCCCCCCNC(C)(C)Cc2ccc3c(c2CC)OCO3)ccc(OC)c1OC.Cl [TCMDC-132055]	5.91	6.03	4.27 µM	19.03%						

SMILES	pIC50 [1, 4]	pIC50 [2, 5]	HepG2 cells mean TOX50 (HepG2 cells; HepG2 cells; mean)	Gametocytes mean ATP inhibition at 2µM [3]	pIC50 [1]	pIC50 [2, 6]	HepG2 cells mean TOX50 (HepG2 cells; mean)	Gametocytes mean ATP inhibition at 2µM (%) [3]	pIC50 [1, 7]	HepG2 cells mean TOX50 (HepG2 cells; mean; HepG2 cells)
COc1cc2nc(N3CCC(CNC(=O)c4ccc(-c5ccc(-c6noc(C)n6)cc5)cc4)CC3)nc(N)c2cc1OC [TCMDC-138754]					5.98	6.85	4.90 µM	90.89%		
CCn1c2ccccc2c2cc(C=NN=c3cc(C)[nH]c4ccccc34)ccc21 [TCMDC-142186]		6.51		36.64%					5.38	5.82 µM
Cc1[nH]c(C)c(-c2ccc(CCc3ccc(F)cc3F)cc2)c(=O)c1Cl [TCMDC-135462]	4.88	7.80	>100 µM	51.34%						
COc1c(CCNCCCCNCCc2cc(Cl)c3ccccc3c2OC)cc(Cl)c2ccccc12.CS(=O)(=O)O [TCMDC-137869]					6.48	6.77	1.78 µM	96.85%		
Nc1ccc2[nH]cc(C3CCN(CCC4CCN(C(=O)/C=C/c5ccc(Cl)c(Cl)c5)CC4)CC3)c2n1 [TCMDC-140062]					5.89	6.13	8.13 µM	-11.87%		
CN1CCN(c2ccc(Nc3ncc([N+](=O)[O-])c(Nc4ccccc4O)n3)cc2)CC1.O=C(O)C(F)(F)F [TCMDC-141372]		6.14		-21.03%					5.70	1.82 µM
COc1cc2nc(N3CCC(CCCC4CCNCC4)CC3)nc(NCc3ccccn3)c2cc1OC.O=C(O)C(F)(F)F [TCMDC-138494]					5.16	6.12	18.51 µM	35.38%		
CNCCNc1nccc(N2CCc3ncnc(Nc4ccc(OCc5cccc(F)c5)c(Cl)c4)c3C2)n1 [TCMDC-135478]	5.78	6.70	5.62 µM	-9.54%						
Cc1cc(OCCN2CCCCC2)ccc1NC(=O)c1cccc2c(=O)n(Cc3ccc(Cl)cc3)cnc12 [TCMDC-136727]					5.85	5.98	4.17 µM	13.25%		
CCN(CC)CCN(Cc1ccc(-c2ccc(C(F)(F)F)cc2)cc1)C(=O)Cn1cc(Cc2cnn(C)c2)c(=O)nc1/C=C/c1ccc(F)cc1.O=C(O)C(O)C(O)C(=O)O [TCMDC-140741]					5.92	5.97	13.81 µM	46.80%		
O=C(Nc1ccc(Cl)cc1)c1cc(Cl)cc2nc(C(F)(F)F)[nH]c12 [TCMDC-141586]		6.89		39.06%					5.77	2.82 µM
Nc1c(Cl)cc(C(O)CNCCCCCOCCCc2ccc(O)c3ncccc23)cc1Cl.O=C(O)/C=C/C(=O)O (stereo not drawn) [TCMDC-132088]	5.68	6.00	7.76 µM	76.89%						
CCOc1cc2ccccc2cc1CNCCCCCCNCc1cc2ccccc2cc1OCC.CS(=O)(=O)O [TCMDC-137940]					5.89	6.01	6.06 µM	2.59%		
Cl.Clc1ccc(CNCCCCCCCNCc2ccc(Cl)c(Cl)c2)cc1Cl [TCMDC-138075]					6.15	6.43	4.57 µM	-3.08%		
Cc1ccc(-c2nc3cc(NC(=O)c4ccc([N+](=O)[O-])o4)ccc3o2)cc1Cl [TCMDC-123657]	5.87	6.80	1.72 µM	8.99%						
CN(C)Cc1cccc2nc(-c3csc(Cc4cc(Cl)ccc4OCc4ccccc4)n3)[nH]c12 [TCMDC-132174]	5.68	5.95	13.04 µM	47.80%						
Cc1c(N=O)cc(C(C)(C)C)c(O)c1C(=O)Nc1ccc([N+](=O)[O-])cc1Cl [TCMDC-142233]		6.11		-7.78%					5.93	1.78 µM
CCN(CC)CCN(Cc1ccc(-c2ccc(C(F)(F)F)cc2)cc1)C(=O)Cn1cc(Cc2cnn(C)c2)c(=O)nc1/C=C/c1cccc(F)c1F [TCMDC-140964]		6.02		69.60%					6.06	9.69 µM

From PMC5442318, “Hundreds of dual-stage antimalarial molecules discovered by a functional gametocyte screen” (Nature Communications, 2017)
